In PMC10817943 (Nature Communications, 2024):
Where two headings read alike, the source gives them in different places.

Experiments:
[1] = test system: M. smegmatis mc^2155 reporter strain harboring PradA-LUX; conditions: RadA reporter, ciprofloxacin 0.06 µg/mL, MPA 0.125 µg/mL
[2] = test system: M. smegmatis mc^2155 reporter strain harboring PrecA-LUX; conditions: RecA reporter, ciprofloxacin 0.06 µg/mL, MPA 0.125 µg/mL

## O=C(O)c1cn(C2CC2)c2cc(N3CCNCC3)c(F)cc2c1=O [ciprofloxacin, Ciprofloxacin, reference compound]
[1]; elapsed time 0:00:00
  luminescence induction: 123 RLU
[1]; elapsed time 3:00:00
  luminescence induction: 1612 RLU
[1]; elapsed time 6:00:00
  luminescence induction: 2073 RLU
[1]; elapsed time 9:00:00
  luminescence induction: 2126 RLU
[1]; elapsed time 12:00:00
  luminescence induction: 1993 RLU
[1]; elapsed time 15:00:00
  luminescence induction: 2134 RLU
[1]; elapsed time 18:00:00
  luminescence induction: 2689 RLU
[1]; elapsed time 21:00:00
  luminescence induction: 4077 RLU
[1]; elapsed time 24:00:00
  luminescence induction: 6491 RLU
[1]; elapsed time 27:00:00
  luminescence induction: 10903 RLU
[1]; elapsed time 30:00:00
  luminescence induction: 19150 RLU
[1]; elapsed time 33:00:00
  luminescence induction: 33571 RLU
[1]; elapsed time 36:00:00
  luminescence induction: 56395 RLU
[1]; elapsed time 39:00:00
  luminescence induction: 67383 RLU
[1]; elapsed time 42:00:00
  luminescence induction: 103238 RLU
[1]; elapsed time 45:00:00
  luminescence induction: 85422 RLU
[1]; elapsed time 48:00:00
  luminescence induction: 47660 RLU
[1]; elapsed time 51:00:00
  luminescence induction: 21645 RLU
[1]; elapsed time 54:00:00
  luminescence induction: 9619 RLU
[1]; elapsed time 57:00:00
  luminescence induction: 4843 RLU
[1]; elapsed time 60:00:00
  luminescence induction: 2928 RLU
[1]; elapsed time 63:00:00
  luminescence induction: 1993 RLU
[1]; elapsed time 66:00:00
  luminescence induction: 1543 RLU
[1]; elapsed time 69:00:00
  luminescence induction: 1199 RLU
[1]; elapsed time 72:00:00
  luminescence induction: 998 RLU
[1]; elapsed time 75:00:00
  luminescence induction: 761 RLU
[1]; elapsed time 78:00:00
  luminescence induction: 636 RLU
[1]; elapsed time 81:00:00
  luminescence induction: 547 RLU
[1]; elapsed time 84:00:00
  luminescence induction: 460 RLU
[1]; elapsed time 87:00:00
  luminescence induction: 387 RLU
[2]; elapsed time 0:00:00
  luminescence induction: 1225 RLU
[2]; elapsed time 3:00:00
  luminescence induction: 9623 RLU
[2]; elapsed time 6:00:00
  luminescence induction: 25614 RLU
[2]; elapsed time 9:00:00
  luminescence induction: 37445 RLU
[2]; elapsed time 12:00:00
  luminescence induction: 44651 RLU
[2]; elapsed time 15:00:00
  luminescence induction: 48781 RLU
[2]; elapsed time 18:00:00
  luminescence induction: 52120 RLU
[2]; elapsed time 21:00:00
  luminescence induction: 57807 RLU
[2]; elapsed time 24:00:00
  luminescence induction: 68911 RLU
[2]; elapsed time 27:00:00
  luminescence induction: 89348 RLU
[2]; elapsed time 30:00:00
  luminescence induction: 122834 RLU
[2]; elapsed time 33:00:00
  luminescence induction: 178492 RLU
[2]; elapsed time 36:00:00
  luminescence induction: 273065 RLU
[2]; elapsed time 39:00:00
  luminescence induction: 424870 RLU
[2]; elapsed time 42:00:00
  luminescence induction: 486228 RLU
[2]; elapsed time 45:00:00
  luminescence induction: 462582 RLU
[2]; elapsed time 48:00:00
  luminescence induction: 485841 RLU
[2]; elapsed time 51:00:00
  luminescence induction: 408474 RLU
[2]; elapsed time 54:00:00
  luminescence induction: 246511 RLU
[2]; elapsed time 57:00:00
  luminescence induction: 125742 RLU
[2]; elapsed time 60:00:00
  luminescence induction: 64490 RLU
[2]; elapsed time 63:00:00
  luminescence induction: 37695 RLU
[2]; elapsed time 66:00:00
  luminescence induction: 23762 RLU
[2]; elapsed time 69:00:00
  luminescence induction: 17429 RLU
[2]; elapsed time 72:00:00
  luminescence induction: 13645 RLU
[2]; elapsed time 75:00:00
  luminescence induction: 10589 RLU
[2]; elapsed time 78:00:00
  luminescence induction: 8697 RLU
[2]; elapsed time 81:00:00
  luminescence induction: 7129 RLU
[2]; elapsed time 84:00:00
  luminescence induction: 6189 RLU
[2]; elapsed time 87:00:00
  luminescence induction: 5163 RLU
